{"source": "patent US10441654B2", "about": "(priority 2014, dated 2019)", "key": {"TNFα [1]": {"system": "TNFα", "settings": "mouse, in vivo, ip"}, "EMT6 mammary carcinoma": {"system": "EMT6 mammary carcinoma", "settings": "mouse, in vivo"}, "[2]": {"settings": "mouse, in vivo"}, "TNFα [3]": {"system": "TNFα", "settings": "mouse, in vivo, ip", "remark": "listed apart in the source"}, "[4]": {"system": "CT-2A, K1580 glioblastoma cells", "assay_type": "cell-based, mouse"}, "EMT6 cells": {"system": "EMT6 cells", "assay_type": "cell-based, mouse"}, "cancer cells [5]": {"system": "cancer cells", "assay_type": "cell-based"}, "[6]": {"system": "CT-2A intracranial tumors", "settings": "mouse, in vivo"}, "cancer cells [7]": {"system": "cancer cells", "assay_type": "cell-based", "remark": "listed apart in the source"}, "VSVΔ51 [8]": {"system": "VSVΔ51", "assay_type": "cell-based"}, "TRAIL and TNFα": {"system": "TRAIL and TNFα", "assay_type": "cell-based, human"}, "[9]": {"system": "interferon stimulated gene (ISG) expression", "assay_type": "cell-based", "settings": "cells treated with VSVΔ51 and SMC, 20 hours"}, "[10]": {"settings": "mouse, in vivo", "remark": "listed apart in the source"}, "SNB75 cells": {"system": "SNB75 cells", "experiment": "cells", "assay_type": "cell-based", "settings": "Homo sapiens, SNB-75, read-out: EC50 of SMC therapy"}, "[11]": {"system": "Jak/Stat signalling downstream of IFNβ", "assay_type": "cell-based"}, "786-0 cells": {"system": "786-0 cells", "assay_type": "cell-based"}, "[12]": {"system": "CT-26 mouse colon carcinoma", "settings": "in vivo"}, "cIAP1/2": {"system": "cIAP1/2", "experiment": "cIAP1/2 knockdown in EMT6 tumors (western blotting)", "assay_type": "in vivo, mouse", "settings": "50 mg/kg oral gavage"}, "VSVΔ51 [13]": {"system": "VSVΔ51", "settings": "mouse, 50 mg/kg"}, "IFNβ": {"system": "IFNβ", "assay_type": "cell-based"}, "TNFα [14]": {"system": "TNFα", "assay_type": "cell-based, mouse"}, "cancer cell lines (n=28)": {"system": "cancer cell lines (n=28)", "assay_type": "cell-based"}}, "note": "“Also recorded” adds a separate entry of the source.", "data": [{"molecule": "poly(I:C)", "values": [{"measurement": "TNFα levels from the brain", "setting": "TNFα [1]", "value": "marked up-regulation of TNFα levels"}, {"measurement": "tumor growth", "setting": "EMT6 mammary carcinoma", "value": "no bearing on tumor growth"}, {"measurement": "toxicity of direct intracranial administration", "setting": "[2]", "value": "without overt toxicities"}, {"measurement": "TNFα in serum", "setting": "TNFα [3]", "value": "robust expression of TNFα"}, {"measurement": "glioblastoma cell death by brain lysates of treated mice in the presence of SMCs", "setting": "[4]", "value": "enhanced cell death in the presence of SMCs"}, {"measurement": "bystander death of SMC treated EMT6 cells", "setting": "EMT6 cells", "value": "led to EMT6 cell death directly"}]}, {"molecule": "SM-164", "values": [{"measurement": "synergy with VSVΔ51 to cause cancer cell death", "setting": "cancer cells [5]", "value": "synergize"}]}, {"molecule": "CC(C)Cn1cnc2c(N)nc3ccccc3c21", "note": "[imiquimod]", "values": [{"measurement": "bystander death of SMC treated EMT6 cells", "setting": "EMT6 cells", "value": "required splenocytes"}]}, {"molecule": "IFNα", "values": [{"measurement": "neurotoxicity", "setting": "[6]", "value": "did not result in any overt neurotoxicity"}, {"measurement": "tumor growth and survival", "setting": "EMT6 mammary carcinoma", "value": "no effect on EMT6 tumor growth or overall survival"}, {"measurement": "synergy with SMC recapitulated by recombinant cytokine", "setting": "cancer cells [7]", "value": "recapitulated"}]}, {"molecule": "CN[C@@H](C)C(=O)N[C@H](C(=O)N1CCC[C@H]1c1nc(C(=O)c2ccc(F)cc2)cs1)C1CCCCC1", "note": "[LCL161]", "values": [{"measurement": "VSVΔ51 infectivity in or spread through tumor cells", "setting": "VSVΔ51 [8]", "value": "does not alter"}, {"measurement": "growth kinetics of VSVΔ51", "setting": "VSVΔ51 [8]", "value": "does not affect the growth kinetics"}, {"measurement": "neurotoxicity", "setting": "[6]", "value": "did not result in any overt neurotoxicity"}, {"measurement": "induction of TRAIL and TNFα by IFNβ", "setting": "TRAIL and TNFα", "value": "potentiated"}, {"measurement": "ISG gene expression in response to oncolytic VSV infection", "setting": "[9]", "value": "no bearing"}, {"measurement": "cure rate", "setting": "EMT6 mammary carcinoma", "value": 17, "unit": "%"}, {"measurement": "tumor growth and survival", "setting": "EMT6 mammary carcinoma", "value": "decrease in the rate of tumor growth and a modest extension in survival; also recorded: slightly extended mouse survival"}, {"measurement": "tumor growth rates and survival", "setting": "EMT6 mammary carcinoma", "value": "slightly delayed EMT6 tumor growth rates and slightly extended the survival"}, {"measurement": "tolerability", "setting": "[10]", "value": "well tolerated"}, {"measurement": "weight loss", "setting": "[10]; po, 50 mg/kg", "value": "minimal transient weight loss"}, {"measurement": "EC50", "setting": "SNB75 cells", "value": "> 2500", "unit": "nM"}, {"measurement": "activation of Jak/Stat signalling downstream of IFNβ", "setting": "[11]", "value": "do not alter"}, {"measurement": "cell death outside of the zone of virus infection", "setting": "786-0 cells", "value": "dramatic cell death"}, {"measurement": "tumor growth rate and survival", "setting": "[12]", "value": "modest decrease of the tumor growth rate and a slight extension of survival"}, {"measurement": "duration of cIAP1/2 knockdown in tumors", "setting": "cIAP1/2", "value": "at least 24 hrs"}, {"measurement": "duration of cIAP1/2 knockdown in tumors, in some cases", "setting": "cIAP1/2", "value": "48 to 72", "unit": "h"}, {"measurement": "viral replication and spread in vivo", "setting": "VSVΔ51 [13]", "value": "No differences in viral kinetics"}, {"measurement": "IFNβ secretion", "setting": "IFNβ", "value": "slightly lower levels"}, {"measurement": "cellular production of TNFα upon VSV infection", "setting": "TNFα [14]", "value": "5- to 7 fold percentage increase"}, {"measurement": "synergy with VSVΔ51 to cause cancer cell death", "setting": "cancer cells [5]", "value": "synergize"}, {"measurement": "cancer cell lines in which SMC treatment enhanced sensitivity to VSVΔ51", "setting": "cancer cell lines (n=28)", "value": 54, "unit": "%"}, {"measurement": "enhanced sensitivity: EC50 of VSVΔ51 upon SMC treatment", "setting": "cancer cell lines (n=28)", "value": "10-10,000 fold"}]}, {"molecule": "IFNγ", "values": [{"measurement": "synergy with SMC recapitulated by recombinant cytokine", "setting": "cancer cells [7]", "value": "recapitulated"}]}]}
